Data from patent US9708266B2, “Cyclohexyl pyridine derivative” (priority 2014, dated 2017).

Legend:
[1] = biological target: human NK1 receptor (Homo sapiens (Human), UniProt P25103); assay: Affinity for human NK1 receptor (125I-substance P receptor binding test); conditions: membrane fraction of human NK1 receptor-expressing 293T cells; read-out: IC50 (concentration required for 50% inhibition of 125I-substance P binding)
Description: Affinity for Human NK1 Receptor
PCR was performed using human adult normal tissue-derived brain cDNA (BioChain) as the template, with the forward primer of SEQ ID NO:1 and the reverse primer of SEQ ID NO:2, using a PCR enzyme, PrimeSTAR Max DNA Polymerase or PrimeSTAR GXL DNA Polymerase (registered trademark, Takara Bio). The amplified product was inserted into a plasmid (pCR-BluntII-TOPO (registered trademark), Life Technologies) using Zero Blunt PCR Cloning Kit (registered trademark, Life Technologies). By a general method, Escherichia coli (One Shot TOP10 competent cells, Life Technologies) was transformed by the plasmid into which the amplified product had been inserted. The Escherichia coli cells were cultured on an LB agar medium containing 50 μg/mL kanamycin for a day. After the culture, a colony was selected and cultured in an LB medium containing 50 μg/mL of kanamycin. After the culture, the plasmid was purified using Quantum Prep Plasmid Miniprep Kit (Bio-Rad). The plasmid was double digested for about two hours using restriction enzymes, XhoI and HindIII (New England Biolabs). Then, electrophoresis using 1% agarose gel was performed, and the fragment that was cleaved was collected and purified using TaKaRa RICOCHIP (Takara Bio). […]

[2] = biological target: NK1 receptor (Meriones unguiculatus (Mongolian jird) (Gerbillus unguiculatus), UniProt Q5DUB1); assay: Effect on GR73632-induced foot-tapping; format: in vivo; conditions: male gerbil, 0.1 mg/kg iv, GR73632 icv after four hours
Description: (§1) The test compound solution was prepared by dissolving the test compound in a vehicle (a mixture of 50% N,N-dimethylacetamide (Wako Pure Chemical Industries), 30% propylene glycol (Wako Pure Chemical Industries), 4% 2-hydroxypropyl-3-cyclodextrin (Wako Pure Chemical Industries) and 16% distilled water).
A male gerbil (Japan SLC) was anesthetized with isoflurane, and 0.1 mg/kg of a test compound was administered from the jugular vein. After four hours, GR73632 (5 pmol/5 μl saline), which is an NK1 receptor agonist, was administered into the cerebral ventricle at the part 1 mm lateral to and 4.5 mm below the bregma in the head, under anesthesia with isoflurane. After the administration, the gerbil was moved to an observation cage, and the foot-tapping period during 30 minutes after the recovery of the righting reflex was measured. The foot-tapping inhibition rate (%) of each test compound was calculated by the following equation. Foot-tapping inhibition rate (%)={1−(Foot-tapping period when test compound was administered)/(Foot-tapping period when solvent was administered)}×100 (2) Measurement of Drug Concentrations

[3] = Ferret pharmacokinetic test; format: in vivo; conditions: male ferret, plasma
Description: Ferret Pharmacokinetic Test
The test compound solution for intravenous administration was prepared by dissolving the test compound in a vehicle (a mixture of 50% N,N-dimethylacetamide (Wako Pure Chemical Industries), 30% propylene glycol (Wako Pure Chemical Industries), 4% 2-hydroxypropyl-β-cyclodextrin (Wako Pure Chemical Industries) and 16% distilled water). As an oral administration solution, the suspension (0.5% methylcelluose) was used.
Under anesthesia with isoflurane, 0.1 mg/kg of the test compound was intravenously administered to a male ferret (Marshall BioResources Japan) from the femoral vein. In the case of oral administration, 1 mg/kg of the test compound was orally administered to an awake animal. After the administration of the test compound, blood samples were taken sequentially from the brachial cephalic vein up to 7 days after the administration. Through a quantitative analysis using liquid chromatography-mass spectrometry (LC/MS), the concentrations of the test compound in the plasma were measured.
In the tables, Ex. No. means the Example number. t1/2, CLtot and Vss are the half-life, the total body clearance and the steady-state volume of distribution, based on the plasma concentrations in the case of intravenous administration, respectively. Cmax, AUC and BA are the maximum plasma test compound concentration, the area under the plasma test compound concentration-time curve within 7 days after the administration and the bioavailability, in the case of oral administration, respectively.

[4] = test system: cisplatin-induced acute and delayed emetic response; assay: Effect on cisplatin-induced acute and delayed emetic response; format: in vivo; conditions: male ferret, 0.01 or 0.1 mg/kg iv, cisplatin 5 mg/kg ip
Description: The vertical axes show the number of retching and vomiting (Retches+Vomits) (the mean+standard error of 3 examples of control group, the mean+standard error of 3 examples of the group intravenously administered with 0.01 mg/kg, and the mean+standard error of 3 examples of the group intravenously administered with 0.1 mg/kg).
Effect on Cisplatin-Induced Acute and Delayed Emetic Response
as §1, with “2-hydroxypropyl-β-cyclodextrin” for “2-hydroxypropyl-3-cyclodextrin”, “water). The vehicle only was administered to the control group.” for “water).”
Under anesthesia with isoflurane, 0.01 mg/kg or 0.1 mg/kg of the test compound was intravenously administered to a male ferret (Marshall BioResources Japan) from the jugular vein. Cisplatin in saline, which was heated to 40-50° C., was intraperitoneally administered at 5 mg/kg one hour after the drug administration.

Chain of NK1 receptor (Q5DUB1 whole entry): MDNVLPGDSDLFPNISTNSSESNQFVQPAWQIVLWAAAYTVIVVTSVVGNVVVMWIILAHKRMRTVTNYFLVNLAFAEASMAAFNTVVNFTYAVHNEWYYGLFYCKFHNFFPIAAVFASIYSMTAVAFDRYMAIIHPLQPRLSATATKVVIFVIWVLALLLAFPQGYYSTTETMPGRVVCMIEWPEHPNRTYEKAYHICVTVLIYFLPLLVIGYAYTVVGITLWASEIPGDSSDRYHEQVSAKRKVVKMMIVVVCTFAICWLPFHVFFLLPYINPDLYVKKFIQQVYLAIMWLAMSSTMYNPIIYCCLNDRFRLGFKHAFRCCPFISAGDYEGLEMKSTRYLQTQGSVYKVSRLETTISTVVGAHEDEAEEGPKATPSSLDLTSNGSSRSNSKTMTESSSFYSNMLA
Chain of human NK1 receptor (P25103 whole entry): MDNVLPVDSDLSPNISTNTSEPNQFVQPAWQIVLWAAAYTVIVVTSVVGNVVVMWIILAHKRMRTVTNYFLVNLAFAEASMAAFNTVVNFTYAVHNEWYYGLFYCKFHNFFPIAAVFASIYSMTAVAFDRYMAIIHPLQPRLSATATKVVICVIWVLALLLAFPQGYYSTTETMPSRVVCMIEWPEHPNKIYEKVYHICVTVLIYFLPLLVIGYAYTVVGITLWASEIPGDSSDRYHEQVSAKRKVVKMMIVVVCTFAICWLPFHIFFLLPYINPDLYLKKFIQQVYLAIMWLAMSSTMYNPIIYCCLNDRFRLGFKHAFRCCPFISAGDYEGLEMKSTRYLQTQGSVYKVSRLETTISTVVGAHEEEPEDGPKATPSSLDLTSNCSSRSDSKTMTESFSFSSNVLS

IC50 [1]	Inhibition (foot-tapping inhibition rate) [2]	clearance ([3]; 0.1 mg/kg intravenous, read-out: CL tot (total body clearance))	Vd ([3]; 0.1 mg/kg intravenous, read-out: Vss (steady-state volume of distribution))	half-life ([3]; 0.1 mg/kg intravenous, read-out: t1/2 (half-life))	AUC ([3]; 1 mg/kg oral, read-out: AUC (area under the plasma concentration-time curve within 7 days) (converted))	bioavailability ([3]; 1 mg/kg oral, read-out: BA (bioavailability))	Cmax ([3]; 1 mg/kg oral, read-out: Cmax (maximum plasma test compound concentration))	SMILES	number of retching and vomiting, delayed phase ([4]; 24 hours to 72 hours)	number of retching and vomiting, acute phase ([4]; up to 24 hours)
1.78 nM	100%							Cc1cc(F)ccc1-c1cc(C2CCC(CCC(=O)O)CC2)ncc1N(C)C(=O)C(C)(C)c1cc(C(F)(F)F)cc(C(F)(F)F)c1 (centres unmarked) [Example 2, 3-{4-[5-{[2-(3,5-Bistrifluoromethylphenyl)-2-methylpropionyl]methylamino}-4-(4-fluoro-2-methylphenyl)pyridin-2-yl]cyclohexyl}propionic acid]		
	100%	0.13 mL/min/kg	0.401 L/kg	41.5 h	88200 ng·h/mL	66%	1260 ng/mL	Cc1cc(F)ccc1-c1cc([C@H]2CC[C@H](CC(=O)O)CC2)ncc1N(C)C(=O)C(C)(C)c1cc(C(F)(F)F)cc(C(F)(F)F)c1 [Example 13, trans-{4-[5-{[2-(3,5-Bistrifluoromethylphenyl)-2-methylpropionyl]methylamino}-4-(4-fluoro-2-methylphenyl)pyridin-2-yl]cyclohexyl}acetic acid]	inhibition of the number of retching and vomiting was observed	inhibition of the number of retching and vomiting was observed
